According to patent US8481567B2, “Sigma receptor compounds” (Laboratorios del Dr. Esteve, S.A., priority 2006, dated 2013):

Legend:
[1] = biological target: sigma-2 site (Homo sapiens, UniProt Q5BJF2); settings: statement in words, background section; cited from earlier work
[2] = biological target: sigma-1 site (Homo sapiens, UniProt Q99720); settings: statement in words, background section; cited from earlier work
Chain of sigma-1 site (Q99720 whole entry): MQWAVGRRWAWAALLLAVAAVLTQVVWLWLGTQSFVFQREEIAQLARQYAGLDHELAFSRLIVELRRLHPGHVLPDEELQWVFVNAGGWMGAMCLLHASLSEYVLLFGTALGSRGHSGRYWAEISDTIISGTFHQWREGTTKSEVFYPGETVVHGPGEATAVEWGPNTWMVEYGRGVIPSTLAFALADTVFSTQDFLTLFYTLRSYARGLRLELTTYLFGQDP

Chain of sigma-2 site (Q5BJF2 whole entry): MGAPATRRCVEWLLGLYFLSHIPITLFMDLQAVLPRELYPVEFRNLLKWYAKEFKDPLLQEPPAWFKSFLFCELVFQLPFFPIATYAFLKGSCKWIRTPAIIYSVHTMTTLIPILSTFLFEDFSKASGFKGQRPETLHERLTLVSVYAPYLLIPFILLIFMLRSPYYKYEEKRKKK

Molecule	melting point	affinity for the sigma-2 site [1]	affinity for the sigma-1 site [2]
Cn1ccc2c1CCCC2CCN1CCC(O)(c2ccc(Cl)cc2)CC1.O=C(O)C(=O)O (stereo not shown)	154 to 155 °C		
Cn1ccc2c1CCCC2CCN1CCC(c2ccccc2)CC1.O=C(O)C(=O)O (stereo not shown)	86 to 90 °C		
SKF 10047		micromolar	nanomolar
